Measured values from PubChem BioAssay AID1963834 (Molecular Pharmacology Branch, DTP, NCI, 2024).

System: 873145-292-R-J1-PDC complex spheroid viability
Assay: Anticancer human tumor 873145-292-R-J1-PDC patient-derived renal clear cell carcinoma cell line growth inhibition [POLQ]
Conditions: for IC50: curve of first compound; for viability, T/C: stronger effect = lower value
Procedure, shortened: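 Three-cell-type spheroids modelling solid tumor plus stroma served as the readout system; POL inhibitors were tested individually and in combination, concentration ranges set by clinical Cmax where known.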

[1] = second compound 0.0316 µM, first compound 0.0316 µM
[2] = second compound 0.0316 µM, first compound 0.1 µM
[3] = second compound 0.0316 µM, first compound 0.316 µM
[4] = second compound 0.0316 µM, first compound 1 µM
[5] = second compound 0.0316 µM, first compound 3.16 µM
[6] = second compound 0.0316 µM, first compound 10 µM
[7] = second compound 0.1 µM, first compound 0.0316 µM
[8] = second compound 0.1 µM, first compound 0.1 µM
[9] = second compound 0.1 µM, first compound 0.316 µM
[10] = second compound 0.1 µM, first compound 1 µM
[11] = second compound 0.1 µM, first compound 3.16 µM
[12] = second compound 0.1 µM, first compound 10 µM
[13] = second compound 0.316 µM, first compound 0.0316 µM
[14] = second compound 0.316 µM, first compound 0.1 µM
[15] = second compound 0.316 µM, first compound 0.316 µM
[16] = second compound 0.316 µM, first compound 1 µM
[17] = second compound 0.316 µM, first compound 3.16 µM
[18] = second compound 0.316 µM, first compound 10 µM
[19] = second compound 1 µM, first compound 0.0316 µM
[20] = second compound 1 µM, first compound 0.1 µM
[21] = second compound 1 µM, first compound 0.316 µM
[22] = second compound 1 µM, first compound 1 µM
[23] = second compound 1 µM, first compound 3.16 µM
[24] = second compound 1 µM, first compound 10 µM
[25] = second compound 3.16 µM, first compound 0.0316 µM
[26] = second compound 3.16 µM, first compound 0.1 µM
[27] = second compound 3.16 µM, first compound 0.316 µM
[28] = second compound 3.16 µM, first compound 1 µM
[29] = second compound 3.16 µM, first compound 3.16 µM
[30] = second compound 3.16 µM, first compound 10 µM
[31] = second compound 10 µM, first compound 0.0316 µM
[32] = second compound 10 µM, first compound 0.1 µM
[33] = second compound 10 µM, first compound 0.316 µM
[34] = second compound 10 µM, first compound 1 µM
[35] = second compound 10 µM, first compound 3.16 µM
[36] = second compound 10 µM, first compound 10 µM
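Further: spheroids exposed to compounds for 7 days before viability readout.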
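Wherever viability, T/C is given: luminescence signal used as surrogate for viable cell content; 100% = DMSO vehicle control viability.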

Compound: CNCc1ccc(-c2[nH]c3cc(F)cc4c3c2CCNC4=O)cc1 + Cc1cccc(N(C)C(=O)C2C(O)CCN2c2nc(C)cc(C(F)(F)F)c2C#N)c1
- IC50 (second compound 0.0316 µM): > 10 µM
- IC50 (second compound 0.1 µM): > 10 µM
- IC50 (second compound 0.316 µM): > 10 µM
- IC50 (second compound 1 µM): > 10 µM
- IC50 (second compound 3.16 µM): > 10 µM
- IC50 (second compound 10 µM): > 10 µM
- viability, T/C [1]: 93.1%
- viability, T/C [2]: 111%
- viability, T/C [3]: 96.6%
- viability, T/C [4]: 96.4%
- viability, T/C [5]: 110%
- viability, T/C [6]: 96.2%
- viability, T/C [7]: 110%
- viability, T/C [8]: 94.1%
- viability, T/C [9]: 89.5%
- viability, T/C [10]: 91.8%
- viability, T/C [11]: 108%
- viability, T/C [12]: 99.9%
- viability, T/C [13]: 111%
- viability, T/C [14]: 101%
- viability, T/C [15]: 99%
- viability, T/C [16]: 91.3%
- viability, T/C [17]: 97.5%
- viability, T/C [18]: 111%
- viability, T/C [19]: 99.5%
- viability, T/C [20]: 102%
- viability, T/C [21]: 99.1%
- viability, T/C [22]: 109%
- viability, T/C [23]: 101%
- viability, T/C [24]: 95.9%
- viability, T/C [25]: 102%
- viability, T/C [26]: 91%
- viability, T/C [27]: 97.6%
- viability, T/C [28]: 87.9%
- viability, T/C [29]: 101%
- viability, T/C [30]: 107%
- viability, T/C [31]: 88.6%
- viability, T/C [32]: 90.4%
- viability, T/C [33]: 106%
- viability, T/C [34]: 88.8%
- viability, T/C [35]: 106%
- viability, T/C [36]: 94.5%

Compound: COc1cccc(OCCCN)c1-c1cc(Nc2cnc(C#N)cn2)n[nH]1 + Cc1cccc(N(C)C(=O)C2C(O)CCN2c2nc(C)cc(C(F)(F)F)c2C#N)c1
- IC50 (second compound 0.0316 µM): > 1 µM
- IC50 (second compound 0.1 µM): > 1 µM
- IC50 (second compound 0.316 µM): > 1 µM
- IC50 (second compound 1 µM): > 1 µM
- IC50 (second compound 3.16 µM): > 1 µM
- IC50 (second compound 10 µM): > 1 µM
- viability, T/C (second compound 0.0316 µM, first compound 0.00316 µM): 102%
- viability, T/C (second compound 0.0316 µM, first compound 0.01 µM): 111%
- viability, T/C [1]: 77.8%
- viability, T/C [2]: 69.7%
- viability, T/C [3]: 74.8%
- viability, T/C [4]: 78.3%
- viability, T/C (second compound 0.1 µM, first compound 0.00316 µM): 104%
- viability, T/C (second compound 0.1 µM, first compound 0.01 µM): 103%
- viability, T/C [7]: 65.9%
- viability, T/C [8]: 73.7%
- viability, T/C [9]: 66.5%
- viability, T/C [10]: 82.1%
- viability, T/C (second compound 0.316 µM, first compound 0.00316 µM): 95.5%
- viability, T/C (second compound 0.316 µM, first compound 0.01 µM): 91.5%
- viability, T/C [13]: 72.7%
- viability, T/C [14]: 73.9%
- viability, T/C [15]: 75.6%
- viability, T/C [16]: 83%
- viability, T/C (second compound 1 µM, first compound 0.00316 µM): 98.2%
- viability, T/C (second compound 1 µM, first compound 0.01 µM): 90.3%
- viability, T/C [19]: 77.5%
- viability, T/C [20]: 70.8%
- viability, T/C [21]: 81.8%
- viability, T/C [22]: 79.1%
- viability, T/C (second compound 3.16 µM, first compound 0.00316 µM): 98.9%
- viability, T/C (second compound 3.16 µM, first compound 0.01 µM): 91.7%
- viability, T/C [25]: 84.7%
- viability, T/C [26]: 82.3%
- viability, T/C [27]: 67.7%
- viability, T/C [28]: 77.3%
- viability, T/C (second compound 10 µM, first compound 0.00316 µM): 88.1%
- viability, T/C (second compound 10 µM, first compound 0.01 µM): 93.6%
- viability, T/C [31]: 91.2%
- viability, T/C [32]: 74.7%
- viability, T/C [33]: 88.6%
- viability, T/C [34]: 91.8%

Compound: O=C(c1cc(Cc2n[nH]c(=O)c3ccccc23)ccc1F)N1CCN(C(=O)C2CC2)CC1 + Cc1cccc(N(C)C(=O)C2C(O)CCN2c2nc(C)cc(C(F)(F)F)c2C#N)c1
- IC50 (second compound 0.0316 µM): > 10 µM
- IC50 (second compound 0.1 µM): > 10 µM
- IC50 (second compound 0.316 µM): > 10 µM
- IC50 (second compound 1 µM): > 10 µM
- IC50 (second compound 3.16 µM): > 10 µM
- IC50 (second compound 10 µM): > 10 µM
- viability, T/C [1]: 104%
- viability, T/C [2]: 110%
- viability, T/C [3]: 87.7%
- viability, T/C [4]: 101%
- viability, T/C [5]: 102%
- viability, T/C [6]: 94.8%
- viability, T/C [7]: 103%
- viability, T/C [8]: 104%
- viability, T/C [9]: 90.4%
- viability, T/C [10]: 102%
- viability, T/C [11]: 99.9%
- viability, T/C [12]: 90.8%
- viability, T/C [13]: 94.4%
- viability, T/C [14]: 92.1%
- viability, T/C [15]: 103%
- viability, T/C [16]: 88.4%
- viability, T/C [17]: 106%
- viability, T/C [18]: 92.2%
- viability, T/C [19]: 103%
- viability, T/C [20]: 89%
- viability, T/C [21]: 87.8%
- viability, T/C [22]: 106%
- viability, T/C [23]: 94.3%
- viability, T/C [24]: 87.7%
- viability, T/C [25]: 92.9%
- viability, T/C [26]: 93.2%
- viability, T/C [27]: 111%
- viability, T/C [28]: 103%
- viability, T/C [29]: 96.8%
- viability, T/C [30]: 98.9%
- viability, T/C [31]: 100%
- viability, T/C [32]: 93.3%
- viability, T/C [33]: 91%
- viability, T/C [34]: 102%
- viability, T/C [35]: 102%
- viability, T/C [36]: 107%
